Several values for one entry are separate records, joined by “and”; a condition that tells them apart may be missing. Equal values may be shown once. Toxic doses and inconclusive results are not listed.
Test system: P388 leukemia ip, CD2F1 mice, survival T/C
Experiment: NCI In Vivo Anticancer Drug Screen. Data for tumor model P388 Leukemia (intraperitoneal) in CD2F1 (CDF1) mice
Details: endpoint: median survival time, higher = longer survival
In short: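 Mice carrying the transplanted tumor received test compound or vehicle. Survival was recorded in each group, and the value is the treated-group measurement divided by that of the vehicle-treated control group.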

[1] = dose: 50.0 mg/kg/injection, schedule: Q01DX005 (ip), vehicle: Klucel (hydroxypropylcellulose) (HPC)
[2] = dose: 100.0 mg/kg/injection, schedule: Q01DX005 (ip), vehicle: Klucel (hydroxypropylcellulose) (HPC)
[3] = dose: 200.0 mg/kg/injection, schedule: Q01DX005 (ip), vehicle: Klucel (hydroxypropylcellulose) (HPC)
[4] = dose: 50.0 mg/kg/injection, schedule: Q01DX009 (ip), vehicle: saline with Tween-80
[5] = dose: 100.0 mg/kg/injection, schedule: Q01DX009 (ip), vehicle: saline with Tween-80
[6] = dose: 200.0 mg/kg/injection, schedule: Q01DX009 (ip), vehicle: saline with Tween-80
[7] = dose: 100.0 mg/kg/injection, schedule: Q01DX001 (ip), vehicle: saline
[8] = dose: 200.0 mg/kg/injection, schedule: Q01DX001 (ip), vehicle: saline
[9] = dose: 400.0 mg/kg/injection, schedule: Q01DX001 (ip), vehicle: saline

Compound: O=C(Nc1ccc(CC2=NCCCN2)cc1)c1ccc(C(=O)Nc2ccc(CC3=NCCCN3)cc2)cc1
- T/C (dose: 0.78 mg/kg/injection, schedule: Q01DX005 (ip), vehicle: saline with Tween-80): 93 % of control
- T/C (dose: 1.56 mg/kg/injection, schedule: Q01DX005 (ip), vehicle: saline with Tween-80): 112 % of control

Compound: Cc1ccc(S(=O)(=O)OC2CN(S(=O)(=O)c3ccc(C)cc3)C2)cc1
- T/C [1]: 100 % of control
- T/C [2]: 91 % of control
- T/C [3]: 90 % of control

Compound: CCc1nc(N)nc(N)c1-c1ccc2c(c1)nnn2C
- T/C [1]: 104 % of control
- T/C [2]: 104 % of control
- T/C [3]: 95 % of control

Compound: CC(=O)N1C=CC(=C2C=CN(C(C)=O)C=C2)C=C1
- T/C (dose: 5.0 mg/kg/injection, schedule: Q01DX009 (ip), vehicle: saline): 100 % of control
- T/C (dose: 10.0 mg/kg/injection, schedule: Q01DX009 (ip), vehicle: saline): 88 % of control
- T/C (dose: 20.0 mg/kg/injection, schedule: Q01DX009 (ip), vehicle: saline): 103 % of control

Compound: FC(F)(F)C1(C(F)(F)F)OP2(c3ccccc3)(OC(C(F)(F)F)(C(F)(F)F)c3ccccc32)c2ccccc21
- T/C [1]: 98 % of control
- T/C [2]: 91 % of control
- T/C [3]: 100 % of control

Compound: CC(C)(C)COc1ccc2c(c1)C1=NC2=NC2=NC(=NC3=NC(=NC4=NC(=N1)c1ccc(OCC(C)(C)C)cc14)c1ccc(OCC(C)(C)C)cc13)c1ccc(OCC(C)(C)C)cc12
- T/C (dose: 60.0 mg/kg/injection, schedule: Q01DX005 (ip), vehicle: Klucel (hydroxypropylcellulose) (HPC)): 99 % of control
- T/C (dose: 120.0 mg/kg/injection, schedule: Q01DX005 (ip), vehicle: Klucel (hydroxypropylcellulose) (HPC)): 88 % of control
- T/C (dose: 240.0 mg/kg/injection, schedule: Q01DX005 (ip), vehicle: Klucel (hydroxypropylcellulose) (HPC)): 89 % of control

Compound: CC1CC(C)(C)N=C(CCC2CCCC23OCCO3)O1 (centres undefined)
- T/C [4]: 100 % of control
- T/C [5]: 104 % of control
- T/C (dose: 100.0 mg/kg/injection, schedule: Q04DX003 (ip), vehicle: saline sonified): 96 % of control
- T/C [6]: 95 % of control
- T/C (dose: 200.0 mg/kg/injection, schedule: Q04DX003 (ip), vehicle: saline sonified): 96 % of control
- T/C (dose: 400.0 mg/kg/injection, schedule: Q04DX003 (ip), vehicle: saline sonified): 100 % of control

Compound: N#CC(N)(C#N)C(N)=O
- T/C [7]: 101 % of control
- T/C [8]: 101 % of control
- T/C [9]: 103 % of control

Compound: OCCOCCN1CCN(CCCN2c3ccccc3Sc3ccc(C(F)(F)F)cc32)CC1
- T/C (dose: 12.5 mg/kg/injection, schedule: Q04DX003 (ip), vehicle: saline): 114 % of control
- T/C (dose: 25.0 mg/kg/injection, schedule: Q04DX003 (ip), vehicle: saline): 117 % of control

Compound: COc1ccccc1C1C2CCCC(C2O)C(c2ccccc2OC)N1C (centres undefined)
- T/C (dose: 100.0 mg/kg/injection, schedule: Q04DX003 (ip), vehicle: saline): 99 % of control and 92 % of control
- T/C (dose: 100.0 mg/kg/injection, schedule: Q04DX003 (ip), vehicle: suspension in saline): 100 % of control
- T/C (dose: 200.0 mg/kg/injection, schedule: Q04DX003 (ip), vehicle: saline): 98 % of control and 102 % of control
- T/C (dose: 200.0 mg/kg/injection, schedule: Q04DX003 (ip), vehicle: suspension in saline): 107 % of control
- T/C (dose: 400.0 mg/kg/injection, schedule: Q04DX003 (ip), vehicle: saline): 98 % of control and 94 % of control
- T/C (dose: 400.0 mg/kg/injection, schedule: Q04DX003 (ip), vehicle: suspension in saline): 99 % of control

Compound: CN(C)C(=O)Oc1ccc(Br)cc1
- T/C [4]: 101 % of control
- T/C [5]: 94 % of control
- T/C [6]: 103 % of control

Compound: C=C1CC2(CCCc3ccccc32)OC1=O (centres undefined)
- T/C [7]: 101 % of control
- T/C [8]: 102 % of control
- T/C [9]: 101 % of control

Compound: O=[N+]([O-])/C=C/c1ccccc1Cl
- T/C (dose: 10.0 mg/kg/injection, schedule: Q01DX009 (ip), vehicle: other): 115 % of control
- T/C (dose: 30.0 mg/kg/injection, schedule: Q04DX003 (ip), vehicle: other): 118 % of control

Compound: COc1cc2cc(c1Cl)N(C)C(=O)CC(OC(=O)C(C)N(C)C(=O)C(C)C)C1(C)OC1C(C)C1CC(O)(NC(=O)O1)C(OC)/C=C/C=C(C)C2 (centres undefined)
- T/C (dose: 0.1 micrograms/kg/injection, schedule: Q01DX009 (ip), vehicle: saline): 105 % of control
- T/C (dose: 0.2 micrograms/kg/injection, schedule: Q01DX009 (ip), vehicle: saline): 115 % of control
- T/C (dose: 3.1 micrograms/kg/injection, schedule: Q01DX009 (ip), vehicle: saline + alcohol): 157 % of control
- T/C (dose: 3.1 micrograms/kg/injection, schedule: Q01DX009 (ip), vehicle: saline): 150 % of control
- T/C (dose: 6.3 micrograms/kg/injection, schedule: Q01DX009 (ip), vehicle: saline + alcohol): 167 % of control
- T/C (dose: 6.3 micrograms/kg/injection, schedule: Q01DX009 (ip), vehicle: saline): 161 % of control
- T/C (dose: 12.5 micrograms/kg/injection, schedule: Q01DX009 (ip), vehicle: saline + alcohol): 150 % of control

Compound: CCCCC1(CCN(CC)c2ccccc2)C(=O)NC(=O)NC1=O
- T/C [1]: 101 % of control
- T/C [2]: 99 % of control
- T/C [3]: 99 % of control

Compound: CCC1=C[C@H]2CN(CCc3c([nH]c4ccccc34)[C@@](C(=O)OC)(c3cc4c(cc3OC)N(C)[C@H]3C(C(=O)OC)=C[C@]5(CC)C=CCN6CC[C@]43[C@@H]65)C2)C1
- T/C (dose: 1.0 mg/kg/injection, schedule: Q01DX001 (ip), vehicle: other): 101 % of control
- T/C (dose: 2.0 mg/kg/injection, schedule: Q01DX001 (ip), vehicle: other): 99 % of control
- T/C (dose: 4.0 mg/kg/injection, schedule: Q01DX001 (ip), vehicle: other): 105 % of control
- T/C (dose: 8.0 mg/kg/injection, schedule: Q01DX001 (ip), vehicle: other): 107 % of control and 120 % of control
- T/C (dose: 16.0 mg/kg/injection, schedule: Q01DX001 (ip), vehicle: distilled water + Tween-80): 124 % of control
- T/C (dose: 16.0 mg/kg/injection, schedule: Q01DX001 (ip), vehicle: other): 113 % of control
- T/C (dose: 64.0 mg/kg/injection, schedule: Q01DX001 (ip), vehicle: distilled water + Tween-80): 171 % of control
- T/C (dose: 64.0 mg/kg/injection, schedule: Q01DX001 (ip), vehicle: other): 121 % of control
- T/C (dose: 128.0 mg/kg/injection, schedule: Q01DX001 (ip), vehicle: other): 183 % of control

Compound: O=C1C(Cl)=C(NCCCC2CCCN3CCCCC23)C(=O)c2ccccc21 (centres undefined)
- T/C (dose: 25.0 mg/kg/injection, schedule: Q04DX002 (ip), vehicle: Klucel (hydroxypropylcellulose) (HPC)): 100 % of control
- T/C (dose: 50.0 mg/kg/injection, schedule: Q04DX002 (ip), vehicle: Klucel (hydroxypropylcellulose) (HPC)): 101 % of control
- T/C (dose: 100.0 mg/kg/injection, schedule: Q04DX002 (ip), vehicle: Klucel (hydroxypropylcellulose) (HPC)): 114 % of control and 94 % of control

Compound: Nc1nc(N)nc(Cc2ccccc2)n1
- T/C [4]: 104 % of control
- T/C [5]: 93 % of control
- T/C [6]: 95 % of control

Compound: C[CH2][Sn]([CH2]C)([O]P(=O)(C[Si](C)(C)C)c1ccccc1)[O]P(=O)(C[Si](C)(C)C)c1ccccc1 (centres undefined)
- T/C (dose: 30.0 mg/kg/injection, schedule: Q01DX005 (ip), vehicle: saline with Tween-80): 115 % of control
- T/C (dose: 120.0 mg/kg/injection, schedule: Q01DX005 (ip), vehicle: saline with Tween-80): 151 % of control

Reference: PubChem BioAssay AID330 (DTP/NCI, 2004)
